Measurements published in patent US10828276B2, “Combination therapeutics and methods for the treatment of neurodegenerative and other diseases” (APHIOS CORPORATION, priority 2012, dated 2020).

Experiments:
[1] = tested on: SH-SY5Y neuroblastoma cells; assay: sAPP-a release from SH-SY5Y cells (6E10 western blot, densitometry); assay type: cell-based
Description: Cells were treated with RA, Bryostatin-1 (10^−9M)+RA, Bryostatin-1 (10^−10M), RA+Bryostatin-1 (10^−10M) for 3 h.

[2] = tested on: Alzheimer's disease mediated memory loss; assay: Water maze studies in sweAPP/PS1 mice; assay type: in vivo, Mouse strain B6C3-Tg
Description: Mouse strain B6C3-Tg carrying mutant Swedish Amyloid precursor protein (sweAPP) and PS1 (presenilin-1) genes associated with early onset Alzheimer's disease were subjected to water maze tests at 5-6 months of age.

ADAM10 = ADAM10 expression in SH-SY5Y cells; assay type: cell-based; conditions: single agents
Description: Therefore, Bryostatin-1 may increase […]-secretase processing through 2 independent mechanisms: (i) activation of PKCs which stimulate[…]secretase; and (ii) increased expression of […]-secretase.

`CCC/C=C/C=C/C(=O)O[C@H]1/C(=C/C(=O)OC)C[C@H]2C[C@H]([C@@H](C)O)OC(=O)C[C@H](O)C[C@@H]3C[C@H](OC(C)=O)C(C)(C)[C@](O)(C[C@@H]4C/C(=C/C(=O)OC)C[C@H](/C=C/C(C)(C)[C@]1(O)O2)O4)O3` [Bryostatin-1] was tested, and the sAPP formation ([1]; 10^−9M Bryostatin-1 alone) was “increased”, the activity of alpha-secretase ([1]; SH-SY5Y neuroblastoma cells) was “potently stimulate” and the “sAPPa recovered from culture medium compared to control” value ([1]; single agents, RA 2 μM, Bryostatin-1 10^−10M, 3 h, p<0.05, p<0.01) was “significantly increased”. The “protection against Alzheimer's disease mediated memory loss (water maze)” value ([2]; 5 micrograms/mouse on alternative days orally in an oil formulation, mice 5-6 months of age, vs control animals) was “significant protection”, the “memory and cognition in AD model” value ([2]; our AD model) was “enhance memory and cognition” and the “expression of ADAM10” value (ADAM10) was “significantly increase”.
